Test results reported in PubChem BioAssay (NCI).
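Method: 48-hour compound exposure of cells in 96-well plates, five concentrations, linear interpolation of endpoints. TGI is the concentration that stops growth completely.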 Where a SMILES comes first, the peptide text is derived from it. The star is where a group is joined. Boc = CC(C)(C)OC(=O)*; OSu = O=C1CCC(=O)N1O*

Tests used:
Test in all cases: NCI-60 cell line screen, 48 h
[1] = test system: DU-145 prostate
[2] = test system: OVCAR-5 ovarian
[3] = test system: MDA-MB-435
[4] = test system: LOX IMVI melanoma
[5] = test system: MCF7 breast
[6] = test system: HCT-116 colon
[7] = test system: MDA-MB-231 breast
[8] = test system: SN12C renal
[9] = test system: SK-OV-3 ovarian
[10] = test system: SF-295 CNS
[11] = test system: SR leukemia

For `O=C1CC(O)c2c1csc2Br` (stereo unspecified), the TGI [1] was 88 µM, the TGI [2] was > 100 µM and the TGI [3] was 41.1 µM. It also gave a TGI [4] of 36.1 µM, a TGI [5] of 45.7 µM and a TGI [6] of 49.1 µM. For the same compound, the TGI [7] was 55 µM, the TGI [8] was 87.9 µM and the TGI [9] was > 100 µM. The TGI [10] was > 100 µM.

With `CC(C)(C)OC(=O)NC(Cc1ccc(O)cc1)C(=O)NC(CCCCN)C(=O)NC(Cc1ccc(O)cc1)C(=O)NC(CCCCN)C(=O)ON1C(=O)CCC1=O` (stereo unspecified) (Boc-YKYK-OSu; configuration not given here) the TGI [11] was > 100 µM, the TGI [2] was > 100 µM and the TGI [5] was > 100 µM. The TGI [6] was > 100 µM, the TGI [7] was > 100 µM and the TGI [8] was > 100 µM.

For `C#CCNC(=O)NC(CCCNC(=O)OCc1ccccc1)C(=O)OCc1ccccc1` (stereo unspecified), the TGI [11] was > 100 µM, the TGI [2] was > 100 µM and the TGI [4] was > 100 µM. The TGI [6] was > 100 µM, the TGI [8] was > 100 µM and the TGI [9] was > 100 µM. The TGI [10] was > 100 µM.

`C[C@]12OC[C@H](c3ccccc3)N1C(=O)C1[C@H]2CC12SCCS2` (stereo partly specified) was tested, and the TGI [1] was > 100 µM, the TGI [11] was > 100 µM and the TGI [2] was > 100 µM. The TGI [3] was > 100 µM, the TGI [5] was > 100 µM and the TGI [6] was > 100 µM. The TGI [7] was > 100 µM, the TGI [8] was > 100 µM and the TGI [9] was > 100 µM. The TGI [10] was > 100 µM.

`COC1O[C@H]2CCN(C(=O)OCc3ccccc3)[C@H]2[C@H]1OCc1ccccc1` (stereo partly specified) was tested, and the TGI [11] was 99.7 µM, the TGI [2] was > 100 µM and the TGI [4] was > 100 µM. For the same compound, the TGI [6] was > 100 µM, the TGI [8] was > 100 µM and the TGI [9] was 55.3 µM. The TGI [10] was > 100 µM.

With `CCOC(=O)C1=C(C)N(c2ccccc2)C2=C(C(=O)N(c3ccccc3)C2c2ccccc2)C1c1ccccc1` (stereo unspecified) the TGI [11] was > 100 µM, the TGI [2] was > 100 µM and the TGI [4] was > 100 µM. For the same compound, the TGI [6] was > 100 µM, the TGI [8] was > 100 µM and the TGI [9] was > 100 µM. The TGI [10] was > 100 µM.

In the case of `CC[C@@H]1CC[C@@H]2[C@H](CC[C@]3(C)[C@@H](O)CC[C@@H]23)[C@H]1C(=O)O`, the TGI [1] is reported as > 100 µM, the TGI [2] is reported as > 100 µM and the TGI [3] is reported as > 100 µM. For the same compound, the TGI [4] was > 100 µM, the TGI [5] was > 100 µM and the TGI [6] was > 100 µM. The TGI [7] was > 100 µM, the TGI [8] was > 100 µM and the TGI [9] was > 100 µM. For the same compound, the TGI [10] was > 100 µM.

In the case of `COC(=O)c1cc(CC(C)C)c2c(c1)[nH]c1ccccc12`, the TGI [2] is reported as > 100 µM, the TGI [4] is reported as > 100 µM and the TGI [6] is reported as > 100 µM. For the same compound, the TGI [8] was > 100 µM, the TGI [9] was > 100 µM and the TGI [10] was > 100 µM.

In the case of `Cc1cc(=O)cc2sc3c(C)cccc3nc1-2`, the TGI [11] is reported as > 100 µM, the TGI [2] is reported as > 100 µM and the TGI [4] is reported as 39.2 µM. For the same compound, the TGI [6] was 60.5 µM, the TGI [8] was 78.7 µM and the TGI [9] was > 100 µM. The TGI [10] was > 100 µM.

For `[N-]=[N+]=Nc1c(Cl)c(=O)n(-c2ccccc2)c2ccccc12`, the TGI [1] was > 100 µM, the TGI [11] was > 100 µM and the TGI [2] was 42.4 µM. For the same compound, the TGI [3] was 35 µM, the TGI [4] was 29.5 µM and the TGI [5] was 38.7 µM. The TGI [6] was 33.4 µM, the TGI [8] was 51.2 µM and the TGI [9] was > 100 µM. For the same compound, the TGI [10] was > 100 µM.

With `CC(C)(C)C(=O)C(CC(=O)c1ccccc1)C(=O)C(C)(C)C` the TGI [1] was > 100 µM, the TGI [2] was > 100 µM and the TGI [3] was > 100 µM. The TGI [4] was > 100 µM, the TGI [5] was > 100 µM and the TGI [6] was > 100 µM. The TGI [7] was > 100 µM, the TGI [8] was > 100 µM and the TGI [9] was > 100 µM. For the same compound, the TGI [10] was > 100 µM.

With `CCOC(=O)c1cc2c([N+](=O)[O-])c(NC(C)=O)ccc2s1` the TGI [1] was > 100 µM, the TGI [2] was > 100 µM and the TGI [3] was > 100 µM. For the same compound, the TGI [4] was > 100 µM, the TGI [5] was > 100 µM and the TGI [6] was > 100 µM. The TGI [7] was 83.9 µM, the TGI [8] was > 100 µM and the TGI [9] was > 100 µM. The TGI [10] was > 100 µM.

In the case of `Cc1cn(C2CC(N)C(CN)O2)c(=O)[nH]c1=O` (stereo unspecified), the TGI [1] is reported as > 100 µM, the TGI [11] is reported as > 100 µM and the TGI [2] is reported as > 100 µM. For the same compound, the TGI [3] was > 100 µM, the TGI [5] was > 100 µM and the TGI [6] was > 100 µM. The TGI [8] was > 100 µM, the TGI [9] was > 100 µM and the TGI [10] was > 100 µM.

`Cc1c(Cl)cccc1NC(=O)C(=O)C1C(=O)CC(C)(C)CC1=O` was tested, and the TGI [11] was > 100 µM, the TGI [2] was > 100 µM and the TGI [4] was > 100 µM. For the same compound, the TGI [6] was > 100 µM, the TGI [8] was > 100 µM and the TGI [9] was > 100 µM. The TGI [10] was > 100 µM.

For `Clc1cc(N/N=C(/c2ccccc2)c2ncccn2)ncn1`, the TGI [1] was > 100 µM, the TGI [11] was > 100 µM and the TGI [2] was > 100 µM. The TGI [3] was > 100 µM, the TGI [5] was 46.4 µM and the TGI [6] was 28.5 µM. For the same compound, the TGI [7] was 82.1 µM, the TGI [8] was > 100 µM and the TGI [9] was 35.7 µM. For the same compound, the TGI [10] was 77.6 µM.

`COc1cc(COC(=O)N[C@H](C(=O)O)C(C)(C)C)c([N+](=O)[O-])cc1OC` was tested, and the TGI [1] was > 100 µM, the TGI [11] was > 100 µM and the TGI [2] was > 100 µM. The TGI [3] was > 100 µM, the TGI [5] was > 100 µM and the TGI [6] was > 100 µM. For the same compound, the TGI [8] was > 100 µM, the TGI [9] was > 100 µM and the TGI [10] was > 100 µM.

With `Cc1ccc(S(=O)(=O)N2CCN3C(=O)c4ccccc4C32c2ccc(F)cc2)cc1` (stereo unspecified) the TGI [1] was > 100 µM, the TGI [11] was 52.8 µM and the TGI [2] was > 100 µM. For the same compound, the TGI [3] was > 100 µM, the TGI [5] was > 100 µM and the TGI [6] was > 100 µM. For the same compound, the TGI [7] was > 100 µM, the TGI [8] was > 100 µM and the TGI [9] was > 100 µM. The TGI [10] was > 100 µM.

For `CCCN=C1CC(C)Nc2ccccc2N1` (stereo unspecified), the TGI [1] was > 100 µM, the TGI [2] was > 100 µM and the TGI [3] was > 100 µM. The TGI [6] was > 100 µM, the TGI [7] was > 100 µM and the TGI [8] was > 100 µM. For the same compound, the TGI [9] was > 100 µM and the TGI [10] was > 100 µM.

`O=C(/C=C/c1ccccc1)/C=C/c1ccccc1O` was tested, and the TGI [11] was 72.7 µM, the TGI [2] was 65.3 µM and the TGI [4] was 33.8 µM. For the same compound, the TGI [6] was 28.7 µM, the TGI [8] was 30.4 µM and the TGI [9] was 57.5 µM. The TGI [10] was 48.8 µM.

For `CCOc1ccc(N/C(=C(/C(Cl)=C(/Cl)NCCN)[N+](=O)[O-])n2nnc3ccccc32)cc1`, the TGI [2] was > 100 µM, the TGI [3] was > 100 µM and the TGI [5] was > 100 µM. For the same compound, the TGI [6] was 74.6 µM, the TGI [7] was > 100 µM and the TGI [8] was > 100 µM. For the same compound, the TGI [9] was > 100 µM and the TGI [10] was > 100 µM.

In the case of `O=c1c2c3ccccc3[nH]c2c2cccc3c2n1CCC3`, the TGI [1] is reported as > 100 µM, the TGI [11] is reported as 67.5 µM and the TGI [2] is reported as > 100 µM. The TGI [3] was > 100 µM, the TGI [5] was > 100 µM and the TGI [6] was > 100 µM. The TGI [7] was > 100 µM, the TGI [8] was > 100 µM and the TGI [9] was > 100 µM. The TGI [10] was > 100 µM.

For `CC(C)(C)OC(=O)NC(C)(C)C(=O)NCCC(=O)O`, the TGI [2] was > 100 µM, the TGI [3] was > 100 µM and the TGI [4] was > 100 µM. For the same compound, the TGI [5] was > 100 µM, the TGI [7] was > 100 µM and the TGI [8] was > 100 µM. The TGI [9] was > 100 µM and the TGI [10] was > 100 µM.

In the case of `COc1ccc(/C(=C/n2ccnc2)C(=O)c2ccc(OC)c(OC)c2)cc1`, the TGI [11] is reported as > 100 µM, the TGI [2] is reported as > 100 µM and the TGI [4] is reported as > 100 µM. For the same compound, the TGI [6] was > 100 µM and the TGI [8] was > 100 µM.
